Reference: ChEMBL document CHEMBL1201862, “PubChem BioAssay data set” (2004)
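Growth conditions: 96-well plates. Treatment: test compound, 48 hours, 5 concentrations. Analysis: linear interpolation between bracketing concentrations; unreached endpoints set to highest concentration. Here, GI50 denotes the concentration required for 50% inhibition of growth.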 The source made the active and inactive calls. No stated cut-off is given here; in the data, active = GI50 up to about 1.1 µM and inactive = higher.

What was measured:
Assay in all cases: NCI-60 cell line screen, 48 h
[1] = system: A498
[2] = system: A549
[3] = system: ACHN
[4] = system: CCRF-CEM
[5] = system: COLO 205
[6] = system: HCT-116
[7] = system: IGROV-1
[8] = system: MOLT-4
[9] = system: SF-539
[10] = system: SK-MEL-2
[11] = system: TK-10
[12] = system: U-251
[13] = system: UACC-62
[14] = system: NCI-H522
[15] = system: SF-268
[16] = system: SF-295
[17] = system: SK-OV-3

Measured: GI50

COc1ccccc1-c1cc(O)c2cc3c(cc2n1)OCO3
inactive: [1] 11.9 µM | [2] 35.6 µM | [3] 83.8 µM | [4] 18.7 µM | [5] 17.2 µM | [6] 28.6 µM | [7] 35.2 µM | [8] 23.2 µM | [9] 25.1 µM | [10] 40.8 µM | [11] > 100 µM | [12] > 100 µM | [13] 31.6 µM

COc1cc(C(C)O)c[n+](CCc2c[nH]c3ccccc23)c1 (configuration not stated)
inactive: [1] > 100 µM | [2] > 100 µM | [3] > 100 µM | [4] > 100 µM | [5] 72.8 µM | [6] > 100 µM | [7] > 100 µM | [8] > 100 µM | [14] 83.9 µM | [15] 27.1 µM | [16] > 100 µM | [9] > 100 µM | [10] > 100 µM | [11] > 100 µM | [12] > 100 µM | [13] > 100 µM

COC1CC(Br)(C#N)C1 (configuration not stated)
inactive: [2] > 100 µM | [5] > 100 µM | [6] > 100 µM | [7] > 100 µM | [8] 52 µM | [15] > 100 µM | [16] > 100 µM | [9] > 100 µM | [10] > 100 µM | [17] > 100 µM | [11] > 100 µM | [12] > 100 µM | [13] > 100 µM

Cn1c(=O)c(C(=O)NC(=O)OCc2ccccc2)cn(CCSCCOC(=O)NCCCCCCNC(=O)OCCSCCn2cc(C(=O)NC(=O)OCc3ccccc3)c(=O)n(C)c2=O)c1=O
inactive: [1] > 100 µM | [2] > 100 µM | [3] > 100 µM | [4] > 100 µM | [5] > 100 µM | [6] > 100 µM | [7] > 100 µM | [8] > 100 µM | [14] > 100 µM | [15] 84.9 µM | [9] 32.5 µM | [10] > 100 µM | [11] > 100 µM | [12] 63.4 µM | [13] > 100 µM

CC[N+](C)(C)c1ccc(C(=C2C=CC(=[N+](C)C)C=C2)c2ccc(N(C)C)cc2)cc1
inactive: [1] 15.9 µM | [2] 4.45 µM | [3] 10.8 µM | [4] 7.05 µM | [5] 5.31 µM | [6] 4.2 µM | [7] 12 µM | [8] 12.4 µM | [14] 2.79 µM | [15] 10.8 µM | [16] 8.67 µM | [9] 12.8 µM | [10] 21.1 µM | [17] 19.4 µM | [11] 28 µM | [12] 3.94 µM | [13] 6.55 µM

CC(=O)SCCC1c2[nH]c3ccccc3c2CCN1O (configuration not stated)
inactive: [2] > 100 µM | [3] > 100 µM | [4] 31.8 µM | [5] > 100 µM | [7] > 100 µM | [8] 40.6 µM | [14] 23.9 µM | [15] > 100 µM | [16] > 100 µM | [9] > 100 µM | [10] > 100 µM | [17] > 100 µM | [11] > 100 µM | [12] > 100 µM | [13] > 100 µM

CC1=NN(C(=O)Cc2ccccc2)C(=O)/C1=C\c1cccc(O)c1
inactive: [2] > 100 µM | [3] > 100 µM | [4] > 100 µM | [5] > 100 µM | [6] > 100 µM | [8] > 100 µM | [14] > 100 µM | [15] > 100 µM | [16] > 100 µM | [9] > 100 µM | [10] > 100 µM | [11] > 100 µM | [12] > 100 µM

COc1ccc(/C=C2\C(=O)N(C(=O)c3ccc(NC(C)=O)cc3)N=C2C)cc1
inactive: [2] > 100 µM | [3] > 100 µM | [4] > 100 µM | [5] > 100 µM | [6] > 100 µM | [8] > 100 µM | [14] > 100 µM | [15] > 100 µM | [16] > 100 µM | [9] > 100 µM | [10] > 100 µM | [11] > 100 µM

NC1=NN(c2ccccc2)C(=O)C1C(=O)C(=O)NC1C2CC3CC(C2)CC1C3 (configuration not stated)
inactive: [2] > 100 µM | [3] > 100 µM | [4] > 100 µM | [5] > 100 µM | [6] > 100 µM | [7] > 100 µM | [8] > 100 µM | [15] > 100 µM | [16] > 100 µM | [9] > 100 µM | [10] > 100 µM | [17] 24.9 µM | [11] > 100 µM | [12] > 100 µM | [13] > 100 µM

CN(C)Cc1[nH]c2ccccc2c1C(=O)c1ccccc1
inactive: [2] > 100 µM | [3] > 100 µM | [4] > 100 µM | [5] > 100 µM | [6] > 100 µM | [7] > 100 µM | [8] > 100 µM | [14] > 100 µM | [15] > 100 µM | [16] > 100 µM | [9] > 100 µM | [10] > 100 µM | [11] > 100 µM | [12] > 100 µM | [13] > 100 µM

O=[PH](O)c1cccnc1
inactive: [1] > 100 µM | [2] > 100 µM | [3] > 100 µM | [4] > 100 µM | [5] > 100 µM | [6] > 100 µM | [7] > 100 µM | [8] > 100 µM | [14] > 100 µM | [15] > 100 µM | [16] > 100 µM | [9] > 100 µM | [17] > 100 µM | [11] > 100 µM | [12] > 100 µM | [13] > 100 µM

O=S1(=O)CCCS(=O)(=O)C(c2ccccc2)=C1c1ccccc1
inactive: [1] > 100 µM | [2] 42.3 µM | [3] 54 µM | [4] 32.1 µM | [6] 30.5 µM | [7] 70.5 µM | [8] 36.2 µM | [14] 27.5 µM | [15] > 100 µM | [16] > 10 µM | [9] > 100 µM | [10] 42.6 µM | [17] 44.2 µM | [11] > 100 µM | [12] 92.7 µM | [13] 29 µM

Cc1ccc(N2C(=O)C(Cl)=C(Cl)C2=O)cc1
inactive: [1] > 100 µM | [2] 37.6 µM | [3] 19.6 µM | [4] 5.11 µM | [5] 16.1 µM | [6] 17 µM | [7] 20.8 µM | [8] 16.4 µM | [14] 13 µM | [15] 17.9 µM | [16] 71.8 µM | [9] 25.2 µM | [10] > 100 µM | [17] 44 µM | [12] 38.3 µM | [13] > 10 µM
